Source: PMC10343216 (Molecules, 2023)
Values joined by “and” are separate entries in the source; they are usually repeats but may differ in a detail not shown here. Equal entries are not always repeated. Where two headings read alike, the source gives them in different places.

Legend:
human 11β-HSD1 = biological target: T1, human 11β-HSD1 (Homo sapiens, UniProt P28845); experiment: Human 11β-HSD1 assay in human liver microsomes (cortisone to cortisol, HPLC-MS/MS); format: biochemical; conditions: for IC50 / remaining activity at 100 µM: 200 nM cortisone, 15 min; for IC50: Mean ± SEM, n = 4; for remaining activity at 100 µM: human, 100 µM compound, read-out: 11β-HSD1 residual activity relative to the control (DMSO); for Mode Action: human 11β-HSD1, judged by α and Lineweaver-Burk plot
T1 construct: Human 11β-HSD1 in liver microsomes catalyzes the conversion of cortisone to cortisol; tissue Iphase (Beijing, China) H2610; host or cells: human liver microsomes (purchased)
Procedure: (§1) The 11β-HSD1 activity was determined by measuring the reductive catalysis of 11keto-steroid substrates, cortisone for human 11β-HSD1 and DHC for rat 11β-HSD1, which were converted to cortisol and CORT, respectively. The 11β-HSD1 assay was carried out as previously described with a minor modification. […] At the end of the reaction, acetonitrile (200 µL, CAT#: UN1648; Sigma) and internal standard testosterone-d5 (IS, T-d5, 10 μL, Zzbio, Shanghai, China) were added to the system, the organic layer was extracted, and 10 µL was injected into the HPLC-MS/MS system to measure cortisol, or CORT, as previously described.
(§2) The amount of cortisol, or CORT, in the organic layer was determined using an Acquity UPLC equipped with a BEH C18 column (2.1 mm, 50 mm, 1.7 m) and a 0.2 mm stainless steel frit filter and an XEVO TQD triple quadrupole mass spectrometer (Waters, Milford, MA, USA), as previously described. The mobile phase was a mixture of solvents A (0.1% formic acid in water) and B (acetonitrile) combined in the following gradient program: 5–5% B (0–0.5 min), 5–95% B (0.5–1.0 min), 95–95% B (1.0–2.0 min), and 95–5% B (2.0–2.1 min). The injection volume was 6 µL, and the flow rate was 0.40 mL/min. Before the second injection, a re-equilibration period of 0.9 min was set. The temperatures were 4 °C for the sample and 40 °C for column. Mass spectrometric detection was carried out using a Waters Corporation XEVO TQD triple quadruple mass spectrometer with an ESI source. For cortisol and IS, the multiple reaction monitoring mode transitions were m/z 358.3→340.3 and m/z 237.2→194.3. Data collection and instrument control were performed using Masslynx 4.1 software (Waters Corp., Milford, MA, USA). Cortisol, or CORT, standards were prepared by dissolving them in methanol. […] The enzymatic activity obtained by measuring the conversion rate (%) of cortisone to cortisol for human 11β-HSD1 or DHC to CORT for rat 11β-HSD1 was calculated.
(§3) The time curve of the 11β-HSD1 reaction was prepared by a linear regression using GraphPad version 8.0 (GraphPad, San Diego, CA, USA). […] The lineweaver-Burk plot after linear regression was also carried out to judge the mode of action.

rat 11β-HSD1 = biological target: T2, rat 11β-HSD1 (Rattus norvegicus, UniProt P16232); experiment: Rat 11β-HSD1 assay in rat liver microsomes (DHC to CORT, HPLC-MS/MS); format: biochemical; conditions: for remaining activity at 100 µM: read-out: 11β-HSD1 residual activity relative to the control (DMSO); for Mode Action: rat 11β-HSD1, judged by α and Lineweaver-Burk plot; for α (mixed model): rat liver 11β-HSD1
T2 construct: Rat 11β-HSD1 in liver microsomes catalyzes the conversion of DHC to CORT; from tissue; host or cells: liver microsomes of male Sprague-Dawley rats (age 3 months), prepared in house
Procedure: The preparation of rat liver microsomes was carried out as previously reported. In this preparation procedure, rat livers were homogenized in sucrose (0.25 M) containing PBS (0.01 M, pH 7.2). […] The pellets were resuspended in cold PBS by homogenization, and the concentration of microsomal protein was determined using the Bio-Rad Protein Assay Kit (CAT#: P0010; Beyotime, Jiangsu, China) according to the manufacturer’s instructions.
as §1, §2, §3

[1] = ZINC database ref 39; cited from earlier work
[2] = rat, 100 µM compound, 200 nM DHC, 15 min
[3] = human liver microsomes, read-out: IC50
[4] = substrate, rat liver microsomes, Michaelis-Menten
[5] = substrate, human liver microsomes, Michaelis-Menten

T1 sequence (P28845 whole entry): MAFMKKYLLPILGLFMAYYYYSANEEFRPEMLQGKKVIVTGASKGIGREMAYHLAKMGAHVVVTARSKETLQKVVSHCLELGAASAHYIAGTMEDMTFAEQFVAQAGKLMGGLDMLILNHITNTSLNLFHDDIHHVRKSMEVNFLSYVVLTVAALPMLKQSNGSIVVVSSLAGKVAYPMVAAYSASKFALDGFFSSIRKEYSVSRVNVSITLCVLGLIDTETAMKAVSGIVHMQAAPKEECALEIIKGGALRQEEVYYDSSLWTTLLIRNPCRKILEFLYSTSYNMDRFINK
T2 sequence (P16232 whole entry): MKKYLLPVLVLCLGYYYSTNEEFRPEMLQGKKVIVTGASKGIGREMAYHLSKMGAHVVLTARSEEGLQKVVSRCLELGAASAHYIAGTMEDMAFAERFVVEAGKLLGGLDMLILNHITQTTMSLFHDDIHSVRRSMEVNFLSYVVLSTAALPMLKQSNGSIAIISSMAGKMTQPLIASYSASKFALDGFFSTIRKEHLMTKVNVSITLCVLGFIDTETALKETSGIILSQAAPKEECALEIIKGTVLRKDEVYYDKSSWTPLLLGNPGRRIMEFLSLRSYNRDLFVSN

| SMILES | IC50 (human 11β-HSD1; IC50, human liver microsomes) | remaining activity at 100 µM (human 11β-HSD1) | IC50 (rat 11β-HSD1) | remaining activity at 100 µM (rat 11β-HSD1; [2]) | LogP [1] | Mode Action (human 11β-HSD1) | Ki (human 11β-HSD1) | also measured |
| --- | --- | --- | --- | --- | --- | --- | --- | --- |
| CC(C)(c1ccc(O)cc1)c1ccc(O)cc1 [BPA, bisphenol A, reference compound] | 297 ± 2.99 µM | > 50% | 36.8 ± 1.09 µM | ≤ 50% | 3.424 and 3.42 |  |  |  |
| COc1ccc(C(C)(C)c2ccc(OC)cc2)cc1 [BPAME, 4,4′-(propane-2,2-diyl)bis(methoxybenzene)] |  | ≤ 50% |  | > 50% | 4.03 | competitive inhibitors |  | IC50 (human 11β-HSD1; [3]): 33.1 ± 0.57 µM; Ki (human 11β-HSD1; human liver microsomes, enzyme kinetics-inhibition (mixed model), read-out: Ki (inhibition constant, measured)): 33.8 µM; IC50 (rat 11β-HSD1; rat liver microsomes, 200 nM DHC, 15 min, Mean ± SEM, n = 4, read-out: IC50): 206 ± 2.16 µM |
| CC(C)c1cc(C(C)(C)c2ccc(O)c(C(C)C)c2)ccc1O [BPG, 4,4′-(propane-2,2-diyl)bis(2-isopropylphenol)] | 5.06 ± 0.07 µM | ≤ 50% | 104 ± 1.52 µM | ≤ 50% | 5.671 | competitive inhibitors | 5.33 µM | Ki (rat 11β-HSD1): 88.6 µM; Mode Action (rat 11β-HSD1): mixed/competitive inhibitors; α (mixed model) (rat 11β-HSD1): 5.78 |
| CC(C)(c1ccc(O)c(-c2ccccc2)c1)c1ccc(O)c(-c2ccccc2)c1 [BPH, 2,2-bis(2-hydroxy-5-biphenylyl)propane] | 0.75 ± 0.02 µM | ≤ 50% | 74.2 ± 0.98 µM | ≤ 50% | 6.758 | competitive inhibitors | 0.44 µM | Ki (rat 11β-HSD1): 74.6 µM; Mode Action (rat 11β-HSD1): mixed/competitive inhibitors; α (mixed model) (rat 11β-HSD1): ∞ |
| C=CCc1cc(C(C)(C)c2ccc(O)c(CC=C)c2)ccc1O [DABPA, 2,2′-diallyl BPA] | 13.4 ± 0.19 µM | ≤ 50% | 132 ± 1.66 µM | > 50% | 4.881 | competitive inhibitors | 14 µM |  |
| C[C@]12CC(=O)[C@H]3[C@@H](CCC4=CC(=O)CC[C@@]43C)[C@@H]1CC[C@@H]2C(=O)CO [DHC, 11-dehydrocorticosterone, reference compound] |  |  |  |  |  |  |  | Km (rat 11β-HSD1; [4]): 0.94 ± 0.09 µM; Vmax (rat 11β-HSD1; [4]): 1072 ± 115.5 pmol/mg/min |
| Cc1cc(C(C)(C)c2ccc(O)c(C)c2)ccc1O [DMBPA, 2,2-bis(4-hydroxy-3-methylphenyl)propane] | 30.2 ± 0.71 µM | ≤ 50% |  | > 50% | 4.041 and 4.04 | competitive inhibitors | 31 µM |  |
| Cc1cc(C(C)(C)c2cc(C)c(O)c(C)c2)cc(C)c1O [TMBPA, 2,2-bis(4-hydroxy-3,5-dimethylphenyl)propane] |  | > 50% |  |  |  |  |  | IC50 (human 11β-HSD1; [3]): 319.2 ± 2.78 µM; 11β-HSD1 residual activity relative to the control (DMSO) (rat 11β-HSD1; [2]): ineffective |
| C[C@]12CCC(=O)C=C1CC[C@@H]1[C@@H]2C(=O)C[C@@]2(C)[C@H]1CC[C@]2(O)C(=O)CO [cortisone, reference compound] |  |  |  |  |  |  |  | Km (human 11β-HSD1; [5]): 0.93 ± 0.22 µM; Vmax (human 11β-HSD1; [5]): 253.2 ± 20.5 pmol/mg/min |
